Test results taken from US20250134891A1, “USE OF SOS1 INHIBITORS WITH MTOR INHIBITORS TO TREAT CANCERS” (Revolution Medicines, Inc., priority 2021, published 2025).

Tests used:
[1] = system: murine pancreatic ductal adenocarcinoma PAN02 PTPN11^G503V; experiment: Tumor growth in vivo, PAN02 PTPN11^G503V syngeneic model; set-up: species or system mouse; conditions: single agent
Description: The combinatorial effects of Compound SOS1-(C) with RM-006 (also known as RMC-6272) on tumor cell growth in vivo were evaluated in the murine pancreatic ductal adenocarcinoma PAN02 PTPN11^G503V syngeneic model using female C57BL/6J mice (6-7 weeks old). Mice were implanted with PAN02 tumor cells in PBS (5×10^6 cells/mouse) subcutaneously in the flank. Once tumors reached an average size of ˜145 mm^3, mice were randomized to treatment groups to start the administration of test articles or control. SOS1-(C) treatment was administered daily by oral gavage and RM-006 was administered weekly by intra-peritoneal injection. Body weight and tumor volumes (using calipers) were measured twice weekly until study endpoint. Regressions (R) are defined as decrease of 10% or more from initial tumor volume.

[2] = system: LN229 human glioblastoma PTPN11^A72S/WT; experiment: Tumor growth in vivo, LN229 PTPN11^A72S/WT glioblastoma CDX model; conditions: single agent; 3 mg/kg IP weekly; athymic nude mice
Description: The combinatorial effects of Compound SOS1-(C) with RM-006 (also known as RMC-6272) on tumor cell growth in a human model of PTPN11-mutant glioblastoma, LN229 PTPN11^A72S/WT. 6-7 week athymic nude mice were implanted with LN229 in 50% matrigel (10×10^6 cells/mouse) subcutaneously in the flank. Once tumors reached an average size of 200 mm^3, mice were randomized into treatment groups (n=10/group) to start the administration of test articles or control. SOS1-(C) treatment was administered daily by oral gavage and RM-006 was administered weekly by intra-peritoneal injection. Body weight and tumor volume (using calipers) was measured twice weekly until study endpoint.

CO[C@H]1C[C@@H]2CC[C@@H](C)[C@@](O)(O2)C(=O)C(=O)N2CCCC[C@H]2C(=O)O[C@H]([C@H](C)C[C@@H]2CC[C@@H](OC(=O)NCCOCCOCCOCCOCCOCCOCCOCCOCCC(=O)NCCS(=O)(=O)c3ccc(C(=O)N4CCOc5ccc(-c6ccc(N)nc6)cc5C4)c(C)c3F)[C@H](OC)C2)C[C@@H](O)[C@H](C)/C=C(\C)[C@@H](O)[C@@H](OC)C(=O)[C@H](C)C[C@H](C)/C=C/C=CC=C1C [RM-006]
tumor growth inhibition (TGI) ([1]; 3 mg/kg IP weekly, female C57BL/6J mice): 11%
regressions (decrease of 10% or more from initial tumor volume) ([1]; any timepoint in this study): did not induce regressions
tumor growth inhibition (TGI) [2]: 72%
